Assay results reported in US9855346B2, “Fluorescent dye compositions and uses thereof” (Chang Gung University of Science and Technology, priority 2014, dated 2018).

What was measured:
[1] = In vivo real-time optical imaging after IV injection; set-up: species or system Sprague-Dawley rats; settings: rats
Method: Male Sprague-Dawley rats aged 8˜10 weeks was supplied by Lasco (Taipei, Taiwan). Animal experimental protocol was approved by the Institutional Animal Care and Use Committee of Chang Gung University, Taiwan. The rats had free access to water and food at all time. The rats were anesthetized and injected with the compositions of the present invention or the control solution (dimethyl sulfoxide:Tween 80:normal saline=4:2:4) at a DiR dose of 40 μg/kg via femoral vein. In vivo real-time imaging was acquired using Pearl® Impulse at NIR wavelength. Rats were sacrificed 4 h post-injection. The following organs were collected and washed with normal saline: skin, muscle, heart, lungs, liver, spleen, and kidneys. The fluorescence intensity in these organs was assessed Ex Vivo by Pearl® Impulse. In Vivo optical images were taken after ICG, control DiR solution (with 40% v/w dimethyl sulfoxide) and S1-S4 compositions were administered into the rats via intravenous (IV) injection.

[2] = NMR line width of half-amplitude (mobility of CP); format: physicochemical; settings: line width at half amplitude of methylene protons, 1H-NMR
Method: The mobility of CP in the compositions was evaluated by NMR, by measuring the line widths of half-amplitude (Hz) of methylene protons. Compositions were diluted with deuterium oxide by 3-fold. Neat CP was diluted with chloroform-d. The compositions were loaded into NMR tubes and their ^1H-NMR spectra were examined by Avance 400 spectrometer (Bruker, Bremen, Germany).
The mobility of solid fatty ester in lipid cores of the CP-containing compositions was examined by proton NMR. The line width of signals for neat CP was 3.50 Hz.

CC1(C)C(/C=C/C=C/C=C/C=C2\N(CCCCS(=O)(=O)O)c3ccc4ccccc4c3C2(C)C)=[N+](CCCCS(=O)(=O)[O-])c2ccc3ccccc3c21 [ICG, Indocyanine green]
time post-injection at which fluorescence is detected in the liver (liver clearance) [1]: ≤ 5 min | imaging time ([1]; fluorescence activity in large and small vessels): about 5 min

CCCCCCCCCCCCCCCCOC(=O)CCCCCCCCCCCCCCC [CP, Cetyl palmitate]
Line width (Hz) [2]: 3.50 Hz
